The source of these data is article PMC4615937 (FEBS Open Bio, 2015).

What all share (format): binding
The target in test [1] is T1, wild-type mALAS2 (murine erythroid 5-aminolevulinate synthase) (Mus musculus, UniProt P08680).
T1 sequence (P08680 79-587): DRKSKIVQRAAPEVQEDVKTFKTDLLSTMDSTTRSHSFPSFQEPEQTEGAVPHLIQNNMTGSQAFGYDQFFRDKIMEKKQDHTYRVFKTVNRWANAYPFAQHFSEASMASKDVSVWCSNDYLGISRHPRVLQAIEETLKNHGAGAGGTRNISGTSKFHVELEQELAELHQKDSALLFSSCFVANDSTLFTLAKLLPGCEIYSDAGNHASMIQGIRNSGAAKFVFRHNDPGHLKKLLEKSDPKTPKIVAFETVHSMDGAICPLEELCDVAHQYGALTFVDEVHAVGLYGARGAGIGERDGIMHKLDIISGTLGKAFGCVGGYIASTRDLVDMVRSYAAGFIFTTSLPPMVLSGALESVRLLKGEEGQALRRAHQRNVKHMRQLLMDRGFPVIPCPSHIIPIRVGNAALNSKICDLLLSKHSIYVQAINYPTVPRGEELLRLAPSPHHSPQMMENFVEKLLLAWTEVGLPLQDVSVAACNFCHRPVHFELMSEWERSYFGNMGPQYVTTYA
Briefly: intrinsic protein fluorescence quenching titration.

Test [2] concerns the target T2, wild-type mALAS2 (murine erythroid 5-aminolevulinate synthase) (Mus musculus, UniProt P08680, K299V).
T2 sequence (P08680 79-587 K299V): T1 sequence (P08680 79-587) with K221V
The experiment in a line: intrinsic protein fluorescence quenching titration.

Test [3] addresses T1, wild-type mALAS2 (murine erythroid 5-aminolevulinate synthase). The conditions noted are these: half-maximal protection; 50 mM phosphate pH 7.5, 10% glycerol, 18 °C; no glycine.

Positions count from the first letter of the chain named.

As for `CC(C)(COP(=O)(O)OP(=O)(O)OC[C@H]1O[C@@H](n2cnc3c(N)ncnc32)[C@H](O)[C@@H]1OP(=O)(O)O)[C@@H](O)C(=O)NCCC(=O)NCCS` [CoA], the Kd was found to be 302 ± 12 µM in test [1] and 431 ± 17 µM in test [2].

Consider `CC(C)(COP(=O)(O)OP(=O)(O)OC[C@H]1O[C@@H](n2cnc3c(N)ncnc32)[C@H](O)[C@@H]1OP(=O)(O)O)[C@@H](O)C(=O)NCCC(=O)NCCSC(=O)CCC(=O)O` [succinyl-CoA], for which the Kd turned out to be 297 ± 7 µM in test [1] and 223 ± 8 µM in test [2]. The “K′” value in test [3] came out at 261 ± 75 µM.
